From ChEMBL document CHEMBL1201862, “PubChem BioAssay data set” (2004)
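Values below derive from 48-hour exposures of cells grown in 96-well plates, with endpoints linearly interpolated between the two concentrations bracketing the appropriate inhibition level. The concentration for 50% growth inhibition is given as GI50.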 Calls of active or inactive are those of the source. Rule as the data show it: active = GI50 up to about 1.1 µM and inactive = higher.

Columns and labels:
Assay in all cases: NCI tumour cell line growth inhibition, 48 h
[1] = system: 786-0
[2] = system: HCC 2998
[3] = system: HL-60
[4] = system: HOP-62
[5] = system: HOP-92
[6] = system: IGROV-1
[7] = system: LOX IMVI
[8] = system: MDA-N
[9] = system: MOLT-4
[10] = system: NCI-H23
[11] = system: NCI-H460
[12] = system: NCI-H522
[13] = system: OVCAR-5
[14] = system: OVCAR-8
[15] = system: SK-MEL-5
[16] = system: SK-OV-3
[17] = system: SW-620
[18] = system: U-251
[19] = system: UACC-257

SMILES | GI50 [1] | GI50 [2] | GI50 [3] | GI50 [4] | GI50 [5] | GI50 [6] | GI50 [7] | GI50 [8] | GI50 [9] | GI50 [10] | GI50 [11] | GI50 [12] | GI50 [13] | GI50 [14] | GI50 [15] | GI50 [16] | GI50 [17] | GI50 [18] | GI50 [19]
CC(C)=CCC[C@@H](C)C1=C(N)C(=O)C(C)=C(O)C1=O | 43.7 µM (inactive) | > 75 µM (inactive) | 13 µM (inactive) | 55.1 µM (inactive) | 57.4 µM (inactive) | 29.9 µM (inactive) | 36.6 µM (inactive) | 51.3 µM (inactive) | 19.5 µM (inactive) | 42.7 µM (inactive) | 33.7 µM (inactive) | 25.8 µM (inactive) | 53.1 µM (inactive) | 22.4 µM (inactive) | 24.8 µM (inactive) | 71.1 µM (inactive) | 41.3 µM (inactive) | 31.8 µM (inactive) | > 75 µM (inactive)
CCOP(=O)(OCC)/C(C#N)=C/c1ccccn1 | > 100 µM (inactive) | > 100 µM (inactive) | > 100 µM (inactive) | > 100 µM (inactive) | > 100 µM (inactive) | > 100 µM (inactive) | > 100 µM (inactive) | > 100 µM (inactive) | > 100 µM (inactive) | > 100 µM (inactive) | > 100 µM (inactive) | > 100 µM (inactive) | > 100 µM (inactive) | > 100 µM (inactive) | > 100 µM (inactive) | > 100 µM (inactive) | > 100 µM (inactive) | > 100 µM (inactive) | > 100 µM (inactive)
C=C(CC[C@@H](C(=O)O)[C@H]1[C@H](O)C[C@@]2(C)C3=CC[C@@H](C(=C)C)[C@](C)(CCC(=O)O)C3=CC[C@]12C)C(C)C [PORICOIC ACID A] | 16.6 µM (inactive) | 17.9 µM (inactive) | 15.9 µM (inactive) | – | 16.6 µM (inactive) | – | 19.3 µM (inactive) | 16.9 µM (inactive) | 22.1 µM (inactive) | 16.9 µM (inactive) | 18.2 µM (inactive) | 20.4 µM (inactive) | 16.5 µM (inactive) | 19.5 µM (inactive) | 20.4 µM (inactive) | 18 µM (inactive) | 22.2 µM (inactive) | 18 µM (inactive) | 16.4 µM (inactive)
Cc1c(-c2nc3ccccc3[nH]2)c(=O)n(-c2ccccc2)n1C | > 100 µM (inactive) | > 100 µM (inactive) | > 100 µM (inactive) | > 100 µM (inactive) | > 100 µM (inactive) | > 100 µM (inactive) | > 100 µM (inactive) | > 100 µM (inactive) | > 100 µM (inactive) | > 100 µM (inactive) | > 100 µM (inactive) | > 100 µM (inactive) | – | > 100 µM (inactive) | > 100 µM (inactive) | > 100 µM (inactive) | > 100 µM (inactive) | > 100 µM (inactive) | > 100 µM (inactive)
CC(C)C1OCC(CO)CO1 (stereo not drawn) | > 100 µM (inactive) | > 100 µM (inactive) | > 100 µM (inactive) | > 100 µM (inactive) | > 100 µM (inactive) | – | > 100 µM (inactive) | > 100 µM (inactive) | > 100 µM (inactive) | > 100 µM (inactive) | > 100 µM (inactive) | > 100 µM (inactive) | > 100 µM (inactive) | > 100 µM (inactive) | > 100 µM (inactive) | > 100 µM (inactive) | > 100 µM (inactive) | > 100 µM (inactive) | > 100 µM (inactive)
COC1=CC(=O)C(C2(OC(C)C)OC(=O)C(Cl)=C2Cl)=CC1=O (stereo not drawn) | 28.9 µM (inactive) | > 100 µM (inactive) | < 0.01 µM (active) | > 100 µM (inactive) | > 100 µM (inactive) | – | 64.1 µM (inactive) | 49.1 µM (inactive) | – | > 100 µM (inactive) | > 100 µM (inactive) | 25.8 µM (inactive) | > 100 µM (inactive) | 24.9 µM (inactive) | > 100 µM (inactive) | > 100 µM (inactive) | > 100 µM (inactive) | – | > 100 µM (inactive)
COc1ccc(/N=N/N2CCCC2)cc1 | 15.6 µM (inactive) | 45.6 µM (inactive) | 30.1 µM (inactive) | > 100 µM (inactive) | 21.7 µM (inactive) | 14.9 µM (inactive) | 16.1 µM (inactive) | 16.9 µM (inactive) | 26.9 µM (inactive) | 61.7 µM (inactive) | > 100 µM (inactive) | 12.9 µM (inactive) | 83.9 µM (inactive) | – | 30.4 µM (inactive) | > 100 µM (inactive) | 26.8 µM (inactive) | > 100 µM (inactive) | > 100 µM (inactive)
OCCCN(CCc1ccc(Cl)c(Cl)c1)CCN1CCCC1 | 24 µM (inactive) | 18 µM (inactive) | 34.4 µM (inactive) | > 100 µM (inactive) | > 100 µM (inactive) | > 100 µM (inactive) | 35.9 µM (inactive) | 17.3 µM (inactive) | 39.2 µM (inactive) | 69.8 µM (inactive) | 51.2 µM (inactive) | 30.3 µM (inactive) | 31.4 µM (inactive) | > 100 µM (inactive) | – | > 100 µM (inactive) | 81.5 µM (inactive) | 48.1 µM (inactive) | 19.3 µM (inactive)
